One series addresses T1, hFSH-R (Homo sapiens, UniProt P23945).
T1 construct: expressed in transfected cells; host or cells: CHO-3D2 cells (CHO-K1 parental line)
T1 sequence (P23945 18-695): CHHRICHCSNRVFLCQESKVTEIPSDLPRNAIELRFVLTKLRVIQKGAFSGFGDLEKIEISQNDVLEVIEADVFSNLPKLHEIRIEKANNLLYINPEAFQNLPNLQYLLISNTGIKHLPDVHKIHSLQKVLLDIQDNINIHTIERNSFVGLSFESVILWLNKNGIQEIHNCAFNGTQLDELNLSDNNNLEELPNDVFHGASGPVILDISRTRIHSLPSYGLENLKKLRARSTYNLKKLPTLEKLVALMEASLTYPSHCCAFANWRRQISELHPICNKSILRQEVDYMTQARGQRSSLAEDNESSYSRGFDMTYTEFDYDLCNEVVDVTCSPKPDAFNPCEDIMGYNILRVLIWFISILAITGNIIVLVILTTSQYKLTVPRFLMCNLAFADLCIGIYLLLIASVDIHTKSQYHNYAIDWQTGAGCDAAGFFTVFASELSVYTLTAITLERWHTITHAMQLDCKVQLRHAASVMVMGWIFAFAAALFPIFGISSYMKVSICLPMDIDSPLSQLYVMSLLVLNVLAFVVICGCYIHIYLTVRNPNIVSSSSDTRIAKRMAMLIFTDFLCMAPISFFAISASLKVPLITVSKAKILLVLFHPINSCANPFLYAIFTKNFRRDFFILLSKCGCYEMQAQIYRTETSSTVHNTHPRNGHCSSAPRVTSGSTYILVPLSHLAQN
Description: cAMP accumulation (RIA) in CHO-3D2 cells (hFSH-R), hFSH-induced. The conditions noted are these: inhibition of cAMP accumulation induced by hFSH at EC20, CHO-3D2 cells. It counts as cell-based. The method, then: IN VITRO BIO-ASSAY OF AGONISTS AND ANTAGONISTS TO THE FSH RECEPTOR. SELECTIVITY AND DEPENDENCY OF AGONISTS AND ANTAGONISTS TO THE FSH RECEPTOR
Compound Vehicle: Stock compounds were solubilized in 100% DMSO (Sigma-Aldrich Chemical Co., St. Louis, Mo.) at a concentration of 30 mM. The compounds subsequently were diluted in sterile assay medium consisting of Opti-MEM® I (Invitrogen/Life Technologies, Carlsbad, Calif.) with 0.1% (w/v) BSA (Sigma-Aldrich) prior to use in the bio-assay. The final concentration of DMSO in the assay was 0.1%.
Plated cells are then incubated at 37° C. in a humidified 5% CO2/95% air atmosphere.
Assay: On the day of the assay, cells were washed three times with 100 μl/well of assay medium consisting of Opti-MEM® I (Invitrogen/Life Technologies) with 0.1% (w/v) BSA (Sigma-Aldrich). Medium was removed and 100 μl of assay medium was added to each well. Plates were incubated for an additional 30 minutes at 37° C. […] Reactions were terminated by the addition of 50 μl of 0.2N hydrochloric acid to each well and cAMP-accumulation was measured by radioimmunoassay (RIA) using a commercially available kit (Amersham Biosciences, Piscataway, N.J.).
All test compounds were evaluated in a dose-response paradigm ranging from 0.01 to 30 μM. Controls and test compounds were evaluated in quadruplicate in a 96-well format.
Along with the test compounds, FSH was run also as a postive control in the agonist mode using concentrations ranging from 0.1-1000 ng/ml.
Data were analyzed by one-way analysis of variance and significant differences between treatments and control determined by Least Significant Difference test.
Test compounds were compared to the effect of purified human FSH.

A further series addresses T2, human FSH receptor (Homo sapiens, UniProt P23945).
T2 construct: host or cells: CHO-K1 (CHO FSH-R 6CRE-Luc, 1D7 cells)
T2 sequence (P23945 18-695): T1 sequence (P23945 18-695)
The experiment in a line: FSH receptor-dependent CRE-luciferase reporter gene assay (CHO FSH-R 6CRE-Luc cells). It counts as cell-based. The conditions noted are these: dose-response format in presence of EC50 of purified human FSH; * n=3, ** n=2 averages. The method, boiled down:
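CHO-K1 cells stably expressing the recombinant human FSH receptor and a luciferase reporter controlled by 6 cAMP response elements were seeded at 50,000 cells/100 μl/well in 96-well white opaque plates. Antagonists were tested in dose-response against the EC50 of purified human FSH for 4 hours at 37° C, and luciferase chemiluminescence was read with a LucScreen kit.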
Background: Reporter assays use an easily measured gene product as a stand-in for the process of interest.

These results are taken from US7678787B2, “Pyrrolobenzodiazepine pyridine carboxamides and derivatives as follicle-stimulating hormone receptor antagonists” (Wyeth, priority 2005, dated 2010).

Each structure is given as a SMILES string. Values joined by “and” are separate entries in the source; they are usually repeats but may differ in a detail not shown here. Equal values may be shown once.

For orientation: melting point means the temperature of the solid-liquid transition. As a reminder, the IC50 is the concentration that gives 50% inhibition.

`O=C(NCc1cccnc1)c1ccc2n1Cc1ccccc1N(C(=O)c1ccc(-c3ccccc3CN3CCCCC3)cc1)C2` [Example 44] returned a melting point of 199 to 202 °C. Besides, the IC50 against hFSH-R amounted to 1710 nM. For the same molecule, the IC50 at human FSH receptor stood at 2940 nM.

In the case of `Cc1ccccc1-c1ccc(C(=O)N2Cc3ccc(C(=O)NCc4ccc[n+]([O-])c4)n3Cc3ccccc32)cc1C` [Example 4], the melting point is 170 to 173 °C. For the same molecule, the midpoint of inhibition on hFSH-R, the IC50, lay at 800 nM. The IC50 on human FSH receptor was 950 nM.

The molecule `CNCc1ccccc1-c1ccc(C(=O)N2Cc3ccc(C(=O)NCc4cccnc4)n3Cc3ccccc32)cc1` [Example 42] returned a melting point of 149 to 150 °C. The molecule also returned an IC50 against hFSH-R of 2000 nM. The IC50 at human FSH receptor turned out to be 7090 nM.

`O=C(NCc1cccnc1)c1ccc2n1Cc1ccccc1N(C(=O)c1ccc(-n3cccn3)cc1)C2` [Example 112]: the melting point was 107 °C. This molecule gave an IC50 against hFSH-R of 1300 nM. Moreover, the IC50 at human FSH receptor amounted to 7990 nM.

Consider `CC(O)c1ccccc1-c1ccc(C(=O)N2Cc3ccc(C(=O)NCc4cccnc4)n3Cc3ccccc32)cc1` (racemic) [Example 52], for which the melting point is 122 to 126 °C and 118 °C and 122 °C. The molecule further gave an IC50 against hFSH-R of 100 nM. Also, the IC50 on human FSH receptor came to 116 nM.

Molecule `Cc1cccnc1-c1ccc(C(=O)N2Cc3ccc(C(=O)NCc4cccnc4)n3Cc3ccccc32)cc1` [Example 109] yielded a melting point of 150 to 151 °C. The molecule also registered an IC50 on hFSH-R of 300 nM. Besides, on human FSH receptor, the IC50 worked out at 2920 nM.

With `O=C(NCc1cccnc1)c1ccc2n1Cc1ccccc1N(C(=O)c1ccc(-c3ccccn3)cc1)C2` [Example 107], the melting point lay in the range of 159 to 161 °C. On hFSH-R, the IC50 amounted to 200 nM. Besides, the IC50 at human FSH receptor amounted to 3120 nM.

As for `NCc1ccccc1-c1ccc(C(=O)N2Cc3ccc(C(=O)NCc4cccnc4)n3Cc3ccccc32)cc1` [Example 46], the melting point is 115 to 120 °C. The molecule further yielded an IC50 at hFSH-R of 370 nM. Also, at human FSH receptor, the 50% inhibitory concentration (IC50) came out at 2190 nM.

Regarding `COCc1ccccc1-c1ccc(C(=O)N2Cc3ccc(C(=O)NCc4cccnc4)n3Cc3ccccc32)cc1` [Example 61], the melting point is 156 to 157 °C. Moreover, the IC50 against hFSH-R worked out at 50 nM. The IC50 at human FSH receptor is 100 nM.

The molecule `COCc1ccccc1-c1ccc(C(=O)N2Cc3ccc(C(=O)NCc4cccnc4)n3Cc3ccccc32)cc1C` [Example 49] gave a melting point of 163 to 164 °C. The molecule also came in with an IC50 at hFSH-R of 100 nM. Further, on human FSH receptor, the IC50 came out at 600 nM.

`COC(=O)c1ccccc1-c1ccc(C(=O)N2Cc3ccc(C(=O)NCc4cccnc4)n3Cc3ccccc32)cc1` [Example 63] had a melting point of 179.5 to 180.5 °C. Besides, the IC50 on hFSH-R is 380 nM. Further, on human FSH receptor, the IC50 came out at 1180 nM.

With `O=C(c1ccccc1)c1ccc(C(=O)N2Cc3ccc(C(=O)NCc4cccnc4)n3Cc3ccccc32)cc1` [Example 75], the melting point was 211 to 213 °C (dec.). At hFSH-R, this molecule returned an IC50 of 21000 nM. Besides, at human FSH receptor, the IC50 is more than 30000 nM.

As for `CCC(O)c1ccccc1-c1ccc(C(=O)N2Cc3ccc(C(=O)NCc4cccnc4)n3Cc3ccccc32)cc1` (stereo not drawn) [Example 58], the melting point is 111 to 115 °C. For the same molecule, the IC50 on hFSH-R turned out to be 200 nM. In addition, at human FSH receptor, the IC50 worked out at 400 nM.

`Cc1ccccc1-c1ccc(C(=O)N2Cc3ccc(C(=O)NCc4cccnc4)n3Cc3ccccc32)cc1` [Example 28] gave a melting point of 176 to 177 °C. Also, the IC50 against hFSH-R worked out at 800 nM. For the same molecule, the IC50 on human FSH receptor amounted to 2000 nM.

In the case of `O=Cc1ccccc1-c1ccc(C(=O)N2Cc3ccc(C(=O)NCc4cccnc4)n3Cc3ccccc32)cc1` [Example 56], the melting point lay within 162 to 163 °C. Besides, it took 900 nM to reach half-maximal inhibition against hFSH-R (IC50). In addition, the IC50 at human FSH receptor worked out at 1040 nM.

`CC(=O)c1ccccc1-c1ccc(C(=O)N2Cc3ccc(C(=O)NCc4cccnc4)n3Cc3ccccc32)cc1` [Example 51] yielded a melting point of 149 to 150 °C. For the same molecule, on hFSH-R, it took 100 nM to reach half-maximal inhibition (IC50). For the same molecule, at human FSH receptor, the IC50 was found to be 290 nM.
